Source: ChEMBL document CHEMBL1201862, “PubChem BioAssay data set” (2004)
Active and inactive are the calls of the source.

Assays:
[1] = biological target: T1, Nuclear receptor subfamily 0 group B member 1 (Homo sapiens, UniProt P51843); test: Luminescence-based cell-based high throughput dose response assay for inhibitors of the orphan nuclear receptor subfamily 0, group B, member 1 (DAX1; NR0B1). [Related pubchem assays (depositor defined):AID504766, AID504790]; type: functional
T1 sequence (P51843 whole entry): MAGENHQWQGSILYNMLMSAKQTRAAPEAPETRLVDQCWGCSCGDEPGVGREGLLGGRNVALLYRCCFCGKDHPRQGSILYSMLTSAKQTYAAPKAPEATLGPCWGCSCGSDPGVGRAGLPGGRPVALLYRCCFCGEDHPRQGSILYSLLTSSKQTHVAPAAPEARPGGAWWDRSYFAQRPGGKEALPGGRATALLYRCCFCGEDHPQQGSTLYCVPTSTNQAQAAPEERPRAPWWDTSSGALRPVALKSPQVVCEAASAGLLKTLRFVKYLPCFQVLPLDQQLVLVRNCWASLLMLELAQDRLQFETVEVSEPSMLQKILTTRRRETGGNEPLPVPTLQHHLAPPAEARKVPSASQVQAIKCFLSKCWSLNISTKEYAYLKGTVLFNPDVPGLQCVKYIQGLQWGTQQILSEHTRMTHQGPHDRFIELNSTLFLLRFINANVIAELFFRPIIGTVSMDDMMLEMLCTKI

HEK293 = test: cells; type: functional, cell-based; details: Homo sapiens
Major prion protein = Major prion protein (Homo sapiens, UniProt P04156); type: functional, cell-based
INS1 = test: INS-1E survival protection against cytokine death – cell-based, luminescence, retest, dose response (AID 449756); type: functional; details: Rattus norvegicus;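 note: cell death triggered by IL-1 beta plus TNF-alpha plus IFN-gamma mixture; protective hits raise ATP signal compared with cytokine alone wells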
Keap1/Nrf2 = Keap1/Nrf2 (Homo sapiens, UniProt Q14145); test: disruptors of Keap1 binding to Nrf2 peptide – biochemical, fluorescence polarization, cherry-picked samples, dose response (AID 588683)
Protein RecA = biological target: T2, Protein RecA (Mycobacterium tuberculosis, UniProt P9WHJ3); test: Fluorescence Cell-Free Homogeneous Dose Retest to Identify Inhibitors of RecA-Intein Splicing Activity. [Related pubchem assays (depositor defined):AID2097, AID2223, AID489010, AID492950]; type: functional
T2 sequence (P9WHJ3 whole entry): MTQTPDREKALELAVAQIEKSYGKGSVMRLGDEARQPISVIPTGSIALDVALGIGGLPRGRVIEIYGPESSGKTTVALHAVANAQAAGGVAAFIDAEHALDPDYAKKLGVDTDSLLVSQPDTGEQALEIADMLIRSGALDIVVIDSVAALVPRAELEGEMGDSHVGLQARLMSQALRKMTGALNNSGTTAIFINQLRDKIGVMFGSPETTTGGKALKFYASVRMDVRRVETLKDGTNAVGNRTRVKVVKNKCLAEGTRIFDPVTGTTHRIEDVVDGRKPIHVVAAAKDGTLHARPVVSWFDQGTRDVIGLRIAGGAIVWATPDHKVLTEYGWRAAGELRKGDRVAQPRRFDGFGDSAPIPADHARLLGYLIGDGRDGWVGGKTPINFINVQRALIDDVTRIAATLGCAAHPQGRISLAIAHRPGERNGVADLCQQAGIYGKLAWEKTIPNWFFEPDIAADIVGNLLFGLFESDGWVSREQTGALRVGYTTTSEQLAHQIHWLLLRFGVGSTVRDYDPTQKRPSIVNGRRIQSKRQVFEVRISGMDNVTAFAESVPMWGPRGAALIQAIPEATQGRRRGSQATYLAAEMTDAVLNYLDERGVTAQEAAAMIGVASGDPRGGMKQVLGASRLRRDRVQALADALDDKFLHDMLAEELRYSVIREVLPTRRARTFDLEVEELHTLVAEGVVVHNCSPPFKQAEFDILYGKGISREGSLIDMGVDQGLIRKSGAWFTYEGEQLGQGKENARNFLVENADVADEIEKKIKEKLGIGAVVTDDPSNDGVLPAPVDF

ORF 73 = biological target: T3, ORF 73 (Human herpesvirus 8, UniProt O40947); test: KSHV LANA DNA-binding disruption – biochemical, fluorescence polarization, cherry-picked samples, dose response (AID 504725); set-up: species or system Human gammaherpesvirus 8;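 note: fluorescence polarization of a labeled DNA duplex reporting LANA DNA binding; potency is for inhibitors that block LANA binding to the DNA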
T3 sequence (O40947 whole entry): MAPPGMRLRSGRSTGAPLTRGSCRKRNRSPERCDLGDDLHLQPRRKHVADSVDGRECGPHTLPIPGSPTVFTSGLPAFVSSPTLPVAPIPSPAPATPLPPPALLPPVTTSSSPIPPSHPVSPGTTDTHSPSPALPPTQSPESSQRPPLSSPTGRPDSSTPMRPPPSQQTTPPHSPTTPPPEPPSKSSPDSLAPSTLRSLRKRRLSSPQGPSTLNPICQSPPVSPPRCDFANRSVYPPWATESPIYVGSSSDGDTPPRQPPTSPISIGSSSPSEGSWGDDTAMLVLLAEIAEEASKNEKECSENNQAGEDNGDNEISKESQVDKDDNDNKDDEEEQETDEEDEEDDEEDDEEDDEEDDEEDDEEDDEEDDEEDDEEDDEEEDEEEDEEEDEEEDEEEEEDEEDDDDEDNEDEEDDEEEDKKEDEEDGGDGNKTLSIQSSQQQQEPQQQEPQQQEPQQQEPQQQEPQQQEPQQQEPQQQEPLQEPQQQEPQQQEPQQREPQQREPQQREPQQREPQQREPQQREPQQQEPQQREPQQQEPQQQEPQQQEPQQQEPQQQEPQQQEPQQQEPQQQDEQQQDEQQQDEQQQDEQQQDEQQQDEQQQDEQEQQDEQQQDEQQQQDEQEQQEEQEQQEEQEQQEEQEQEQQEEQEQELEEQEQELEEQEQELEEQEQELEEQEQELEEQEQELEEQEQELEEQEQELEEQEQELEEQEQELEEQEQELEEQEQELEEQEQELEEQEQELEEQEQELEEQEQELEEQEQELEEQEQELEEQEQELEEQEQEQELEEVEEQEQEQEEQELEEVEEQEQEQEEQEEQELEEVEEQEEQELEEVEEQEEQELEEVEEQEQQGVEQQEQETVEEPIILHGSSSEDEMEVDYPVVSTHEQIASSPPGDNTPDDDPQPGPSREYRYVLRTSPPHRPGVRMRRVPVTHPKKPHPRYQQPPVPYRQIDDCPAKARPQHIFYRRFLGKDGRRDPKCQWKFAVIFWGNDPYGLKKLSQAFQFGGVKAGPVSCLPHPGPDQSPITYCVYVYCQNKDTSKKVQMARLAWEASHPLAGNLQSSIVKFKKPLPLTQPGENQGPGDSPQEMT

HeLa = test: viability loss in HeLa cells – cell-based, 24 h, cherry-picked samples, cytotoxicity control, dose response (AID 504726); type: functional; details: Homo sapiens;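 note: potency for cytotoxicity as loss of luminescence signal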
[2] = DRD fibroblast viability loss – cell-based, non-viral oncogenic, luminescence, dose response (AID 1934); type: functional; details: Homo sapiens
[3] = biological target: T4, Replicative DNA helicase DnaB (Mycobacterium tuberculosis, UniProt P9WMR3); test: DnaB intein splicing inhibitors, dose response, biochemical, cell-free fluorescence (AID 449749); type: functional
T4 sequence (P9WMR3 whole entry): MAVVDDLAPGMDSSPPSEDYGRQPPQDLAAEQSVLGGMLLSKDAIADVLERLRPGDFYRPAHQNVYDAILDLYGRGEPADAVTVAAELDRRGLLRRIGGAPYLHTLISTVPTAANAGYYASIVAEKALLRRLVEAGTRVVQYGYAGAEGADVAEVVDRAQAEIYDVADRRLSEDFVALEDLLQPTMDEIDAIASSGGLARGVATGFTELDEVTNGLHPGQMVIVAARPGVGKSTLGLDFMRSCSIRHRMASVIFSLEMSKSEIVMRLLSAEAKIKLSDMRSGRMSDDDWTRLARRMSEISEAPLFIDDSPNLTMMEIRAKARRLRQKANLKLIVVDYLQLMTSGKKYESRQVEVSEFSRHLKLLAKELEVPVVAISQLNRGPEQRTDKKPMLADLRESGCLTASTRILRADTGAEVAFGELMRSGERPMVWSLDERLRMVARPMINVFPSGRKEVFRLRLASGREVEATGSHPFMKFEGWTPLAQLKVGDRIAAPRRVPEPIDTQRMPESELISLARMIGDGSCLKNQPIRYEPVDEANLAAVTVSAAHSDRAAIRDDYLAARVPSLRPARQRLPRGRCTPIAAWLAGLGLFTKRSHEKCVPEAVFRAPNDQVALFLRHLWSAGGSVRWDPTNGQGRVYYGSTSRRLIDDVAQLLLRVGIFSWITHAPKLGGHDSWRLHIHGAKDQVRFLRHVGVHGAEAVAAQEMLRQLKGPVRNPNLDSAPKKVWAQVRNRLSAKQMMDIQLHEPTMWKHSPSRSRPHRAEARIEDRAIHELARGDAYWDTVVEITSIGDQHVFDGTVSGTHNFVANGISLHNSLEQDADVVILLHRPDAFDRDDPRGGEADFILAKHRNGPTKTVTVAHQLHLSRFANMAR

BJ [4] = test: BJ-TERT fibroblast viability loss – cell-based, RAS-independent, luminescence, dose response (AID 1933); type: functional; details: Homo sapiens
BJ [5] = test: cells; type: functional, cell-based; details: Homo sapiens
Protein S100-A4 = Protein S100-A4 (Homo sapiens, UniProt P26447); test: human S100A4 peptide interaction inhibition curves – biochemical, fluorescence polarization, cherry-picked hits, dose response (AID 687001); type: functional
BJ [6] = test: BJ-TERT-LT-ST fibroblast viability loss – cell-based, RAS-independent, luminescence, dose response (AID 1935); type: functional; details: Homo sapiens;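 note: BJ fibroblasts immortalized with TERT plus LT and ST oncogenes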
[7] = biological target: Peroxisome proliferator-activated receptor gamma/Nuclear receptor coactivator 1 (Homo sapiens, UniProt P37231); type: functional;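 note: agonist potency as compounds enhance coactivator SRC-1 recruitment to PPARgamma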
[8] = biological target: Peroxisome proliferator-activated receptor gamma/Nuclear receptor coactivator 3 (Homo sapiens, UniProt P37231); type: functional;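 note: agonist potency for raising coactivator recruitment to the receptor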
[9] = biological target: Peroxisome proliferator-activated receptor gamma/Nuclear receptor coactivator 2 (Homo sapiens, UniProt P37231); type: functional;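 note: agonist potency for raising coactivator recruitment to the receptor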
[10] = biological target: Beta-2 adrenergic receptor (Homo sapiens, UniProt P07550); test: ADRB2 activation measured by internalization – cell-based, FAP fluorogen, flow cytometry, cherry pick 1, dose response (AID 588763); type: functional
Chain of Beta-2 adrenergic receptor (P07550 whole entry): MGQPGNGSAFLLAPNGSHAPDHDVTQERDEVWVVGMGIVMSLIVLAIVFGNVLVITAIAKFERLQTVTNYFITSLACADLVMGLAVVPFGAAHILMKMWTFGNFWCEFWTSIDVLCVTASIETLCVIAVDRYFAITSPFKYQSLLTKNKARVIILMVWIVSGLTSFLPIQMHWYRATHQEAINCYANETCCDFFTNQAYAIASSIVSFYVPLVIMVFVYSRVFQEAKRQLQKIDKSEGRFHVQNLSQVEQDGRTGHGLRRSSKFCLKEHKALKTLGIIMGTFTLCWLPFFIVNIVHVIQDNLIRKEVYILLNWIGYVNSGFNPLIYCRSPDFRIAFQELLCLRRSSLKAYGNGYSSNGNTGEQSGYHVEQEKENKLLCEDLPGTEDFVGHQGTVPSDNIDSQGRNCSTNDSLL

Chain of Protein S100-A4 (P26447 whole entry): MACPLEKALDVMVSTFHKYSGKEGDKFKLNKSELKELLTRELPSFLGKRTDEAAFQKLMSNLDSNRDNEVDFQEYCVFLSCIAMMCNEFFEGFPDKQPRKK
Chain of Peroxisome proliferator-activated receptor gamma/Nuclear receptor coactivator 1 (P37231 whole entry): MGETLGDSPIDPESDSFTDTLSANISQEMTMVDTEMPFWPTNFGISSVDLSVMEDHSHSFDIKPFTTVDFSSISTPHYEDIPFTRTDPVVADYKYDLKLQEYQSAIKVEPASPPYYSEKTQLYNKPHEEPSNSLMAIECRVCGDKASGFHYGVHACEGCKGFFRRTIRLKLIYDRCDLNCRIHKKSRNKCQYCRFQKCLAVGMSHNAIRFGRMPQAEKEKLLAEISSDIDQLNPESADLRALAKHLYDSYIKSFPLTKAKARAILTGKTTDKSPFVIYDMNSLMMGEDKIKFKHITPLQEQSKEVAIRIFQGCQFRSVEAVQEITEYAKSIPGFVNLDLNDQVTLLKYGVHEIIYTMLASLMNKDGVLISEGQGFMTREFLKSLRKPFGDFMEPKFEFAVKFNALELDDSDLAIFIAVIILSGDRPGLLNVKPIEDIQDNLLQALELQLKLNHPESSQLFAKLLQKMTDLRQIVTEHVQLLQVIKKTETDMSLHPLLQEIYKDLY
Chain of Peroxisome proliferator-activated receptor gamma/Nuclear receptor coactivator 1 (Q15788 whole entry, further chain): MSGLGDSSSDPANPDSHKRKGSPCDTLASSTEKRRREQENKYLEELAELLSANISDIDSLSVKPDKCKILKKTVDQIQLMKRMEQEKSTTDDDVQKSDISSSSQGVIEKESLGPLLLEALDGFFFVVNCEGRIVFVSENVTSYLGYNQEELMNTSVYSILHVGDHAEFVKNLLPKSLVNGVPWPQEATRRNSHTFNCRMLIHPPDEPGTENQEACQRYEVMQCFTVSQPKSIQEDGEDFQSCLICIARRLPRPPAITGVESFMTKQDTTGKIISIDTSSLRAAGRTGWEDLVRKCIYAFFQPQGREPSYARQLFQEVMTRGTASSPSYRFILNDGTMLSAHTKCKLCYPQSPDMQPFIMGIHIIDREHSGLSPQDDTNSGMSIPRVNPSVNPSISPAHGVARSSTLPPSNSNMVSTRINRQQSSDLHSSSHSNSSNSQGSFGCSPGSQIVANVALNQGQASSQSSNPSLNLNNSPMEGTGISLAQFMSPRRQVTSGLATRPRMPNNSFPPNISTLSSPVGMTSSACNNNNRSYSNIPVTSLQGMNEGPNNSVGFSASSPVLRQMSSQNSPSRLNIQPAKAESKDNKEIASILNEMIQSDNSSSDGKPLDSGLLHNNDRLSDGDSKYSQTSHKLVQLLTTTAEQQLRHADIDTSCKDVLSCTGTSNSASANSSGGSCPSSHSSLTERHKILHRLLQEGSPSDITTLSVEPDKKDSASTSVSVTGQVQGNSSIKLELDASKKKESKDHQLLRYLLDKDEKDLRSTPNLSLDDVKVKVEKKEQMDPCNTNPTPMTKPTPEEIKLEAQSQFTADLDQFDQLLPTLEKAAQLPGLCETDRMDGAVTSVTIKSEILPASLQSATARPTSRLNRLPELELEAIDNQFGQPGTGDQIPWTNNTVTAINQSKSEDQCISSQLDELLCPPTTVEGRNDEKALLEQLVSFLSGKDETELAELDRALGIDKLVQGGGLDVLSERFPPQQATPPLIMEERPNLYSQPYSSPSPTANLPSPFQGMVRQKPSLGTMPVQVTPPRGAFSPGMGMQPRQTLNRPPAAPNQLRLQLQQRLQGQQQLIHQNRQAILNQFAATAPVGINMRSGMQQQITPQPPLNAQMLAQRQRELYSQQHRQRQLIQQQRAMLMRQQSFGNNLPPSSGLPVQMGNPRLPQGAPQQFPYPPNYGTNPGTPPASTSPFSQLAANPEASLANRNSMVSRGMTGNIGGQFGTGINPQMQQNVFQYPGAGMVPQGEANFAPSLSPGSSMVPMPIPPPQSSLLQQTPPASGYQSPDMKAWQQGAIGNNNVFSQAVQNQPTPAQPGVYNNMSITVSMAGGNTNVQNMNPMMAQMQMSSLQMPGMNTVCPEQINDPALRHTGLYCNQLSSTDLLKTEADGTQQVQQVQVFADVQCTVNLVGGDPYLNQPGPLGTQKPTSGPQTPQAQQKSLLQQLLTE
Chain of Peroxisome proliferator-activated receptor gamma/Nuclear receptor coactivator 3 (P37231 whole entry): as the sequence (P37231 whole entry) above
Chain of Peroxisome proliferator-activated receptor gamma/Nuclear receptor coactivator 3 (Q9Y6Q9 whole entry, further chain): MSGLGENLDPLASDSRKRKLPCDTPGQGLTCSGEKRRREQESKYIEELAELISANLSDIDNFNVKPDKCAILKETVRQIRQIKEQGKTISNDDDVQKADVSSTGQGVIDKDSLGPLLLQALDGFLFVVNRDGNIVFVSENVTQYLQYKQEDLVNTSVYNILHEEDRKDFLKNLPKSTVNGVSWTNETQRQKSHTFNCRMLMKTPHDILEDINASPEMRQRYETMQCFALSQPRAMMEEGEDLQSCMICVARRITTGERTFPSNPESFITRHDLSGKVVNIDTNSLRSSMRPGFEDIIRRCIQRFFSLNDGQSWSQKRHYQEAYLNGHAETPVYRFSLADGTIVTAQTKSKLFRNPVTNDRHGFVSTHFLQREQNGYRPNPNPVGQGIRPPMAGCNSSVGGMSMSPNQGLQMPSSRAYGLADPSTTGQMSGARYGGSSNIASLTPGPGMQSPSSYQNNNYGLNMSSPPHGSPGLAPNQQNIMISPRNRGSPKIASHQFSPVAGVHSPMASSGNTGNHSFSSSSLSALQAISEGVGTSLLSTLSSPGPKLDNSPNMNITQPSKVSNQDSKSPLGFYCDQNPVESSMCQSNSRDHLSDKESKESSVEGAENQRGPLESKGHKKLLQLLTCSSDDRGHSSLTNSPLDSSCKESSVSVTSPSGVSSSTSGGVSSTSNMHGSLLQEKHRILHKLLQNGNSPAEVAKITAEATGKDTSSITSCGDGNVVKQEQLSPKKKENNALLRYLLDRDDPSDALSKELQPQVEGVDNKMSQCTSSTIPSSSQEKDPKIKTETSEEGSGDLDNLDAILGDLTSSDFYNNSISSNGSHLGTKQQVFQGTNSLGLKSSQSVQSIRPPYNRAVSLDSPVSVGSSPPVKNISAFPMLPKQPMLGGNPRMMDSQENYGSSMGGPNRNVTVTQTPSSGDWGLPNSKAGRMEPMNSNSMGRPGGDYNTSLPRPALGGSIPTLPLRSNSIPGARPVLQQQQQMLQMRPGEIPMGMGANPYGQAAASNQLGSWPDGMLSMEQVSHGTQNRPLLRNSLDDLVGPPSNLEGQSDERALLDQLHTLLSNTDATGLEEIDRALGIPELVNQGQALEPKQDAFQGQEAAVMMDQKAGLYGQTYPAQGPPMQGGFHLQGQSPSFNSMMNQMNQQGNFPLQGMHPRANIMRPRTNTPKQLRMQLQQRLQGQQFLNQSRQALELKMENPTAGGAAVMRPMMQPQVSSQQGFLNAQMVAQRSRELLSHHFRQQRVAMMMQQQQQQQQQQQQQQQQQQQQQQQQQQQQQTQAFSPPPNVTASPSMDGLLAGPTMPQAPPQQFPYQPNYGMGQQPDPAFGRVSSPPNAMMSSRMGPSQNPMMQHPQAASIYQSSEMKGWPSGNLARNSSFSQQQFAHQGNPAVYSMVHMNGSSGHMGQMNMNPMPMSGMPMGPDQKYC

CC(C)CSc1nnc2c3ccccc3n(C)c2n1
IC50 (cells): > 138 µM (inactive) | IC50 [1]: > 67.5 µM (inactive) | IC50 (HEK293): > 67.5 µM (inactive) | IC50 (Major prion protein): 4.37 µM (active)

CN1CCN(c2ccc([N+](=O)[O-])c3no[n+]([O-])c23)CC1
AC50 (INS1): 1.83 µM (active) | AC50 (Keap1/Nrf2): > 52 µM (inactive) | EC50 (Protein RecA): > 380 µM (inactive) | AC50 (ORF 73): 12.6 µM (active) | AC50 (HeLa): 2.57 µM (active) | EC50 [2]: 5.89 µM (active) | AC50 [3]: > 380 µM (inactive) | EC50 (BJ [4]): 793 nM (active) | EC50 (BJ [5]): 2.37 µM (inconclusive) | AC50 (Protein S100-A4): 3.3 µM (active) | EC50 (BJ [6]): 1.13 µM (inconclusive)

Cc1cc(C)n(-c2nc(SCC(=O)Nc3nccs3)c3c4c(sc3n2)COC(C)(C)C4)n1
EC50 [7]: > 79.4 µM (not active) | EC50 [8]: > 79.4 µM (not active) | EC50 [9]: > 79.4 µM (not active) | EC50 [10]: 8.85 µM (inactive)
